The values below are quoted from earlier work in US8133194B2 (Henry Ford Health System, priority 2006, dated 2012).

Structures are written as SMILES.

The conditions of data set [1]: ICU patients.
For data set [2] the following is noted: as stated for pre-filter fluid pH.
The conditions of data set [3]: under normal conditions, equal to the renal plasma flow.

In the case of `O=C(O)CC(O)(CC(=O)O)C(=O)O` [Citrate], in data set [1], the “K(b) liver clearance of citrate” value is 0.2 to 0.5 L/min. Moreover, the pKa3 in data set [2] is given as 6.3.

As for `Nc1ccc(C(=O)NCC(=O)O)cc1` [PAH, para-amino-hippuric acid], the PAH clearance entry in data set [3] is “up to 0.6 L/minute”.
